Source: patent publication US11691992B2 (Anacor Pharmaceuticals, Inc., priority 2017, dated 2023)
Read-outs that look alike come from different tables or passages of the source.

Legend:
Type in all cases: cell-based
[1] = tested on: Trypanosoma brucei rhodesiense STIB 900 strain; assay: Trypanosoma brucei rhodesiense STIB 900 screening assay; conditions: 72 h
Summary of the method: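 Bloodstream forms of T. b. rhodesiense STIB 900 (10^4 per well) cultured with seven 3-fold drug dilutions (90 to 0.123 μg/mL) in MEM with 15% horse serum, 72 h, 37 °C, 5% CO2. Alamar Blue added for 2-4 h more; fluorescence read at ex 536/em 588 nm for IC50.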

[2] = tested on: L. infantum MHOM/MA(BE)/67 amastigotes in primary peritoneal mouse macrophages; assay: Leishmania infantum intracellular amastigote assay in mouse macrophages; conditions: Macrophage, 120 h
Summary of the method: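 Amastigotes harvested from infected hamster spleen infected primary peritoneal mouse macrophages (5×10^5 amastigotes/well, 2 h, 37 °C). Compounds then present 5 d at 37 °C, 5% CO2. Parasite burden counted by microscopy after Giemsa staining, as % of untreated controls; IC50 from sigmoidal variable-slope fit.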

[3] = tested on: T. cruzi Tulahuen strain C2C4 containing the β-galactosidase (Lac Z) gene in rat skeletal myoblasts (L-6 cells); assay: Trypanosoma cruzi C2C4 screening assay
Procedure: Example 113: Trypanosoma cruzi C2C4 Screening Assay Procedure
Rat skeletal myoblasts (L-6 cells) were seeded in 96-well microtiter plates at 2×10^3 cells/well in 100 μL RPMI 1640 medium with 10% FBS and 2 mM L-glutamine. After 24 h the medium was removed and replaced by 100 μL per well containing 5×10^3 trypomastigote forms of T. cruzi Tulahuen strain C2C4 containing the β-galactosidase (Lac Z) gene (Buckner, et al., Antimicrobial Agents and Chemotherapy, 40: 2592-2597 (1996)). After 48 h the medium was removed from the wells and replaced by 100 μL fresh medium with or without a serial drug dilution of the seven 3-fold dilution steps covering a range from 90 to 0.123 μg/mL. After 96 h of incubation the plates were inspected under an inverted microscope to assure growth of the controls and sterility. The substrate (50 μL) chlorophenol red-β-D-galactopyranoside (CPRG, Roche Diagnostics, Ltd) in 0.25% Nonidet P-40/PBS was added to all wells and a color reaction developed within 2-6 h which was read photometrically at 540 nm. Data were transferred into the graphic program Softmax Pro (Molecular Devices), which calculated IC50 values.

[4] = tested on: STIB719/ILRAD560 T. vivax (drug sensitive) strain; assay: Ex vivo Alamar Blue 48 h drug sensitivity assay for T. vivax; conditions: Trypanosoma vivax, ex vivo bloodstream forms from mouse, 45 hrs + 3 hrs resazurin, read-out: IC50: I Hypoxanthine Incorporation T. vivax STIB 719/ILRA D 560, 2 d
Procedure: Example 109. Ex Vivo Alamar Blue 48 h Drug Sensitivity Assay for T. vivax
[…] Test compounds were prepared as 10 mg/mL DMSO stocks for each assay run. Compounds were assayed in at least three separate, independent test runs and an 11-point dilution curve was used to determine the IC50 values. Bloodstream form trypanosomes were propagated and harvested from a highly parasitemic mouse (via cardiac puncture) and were incubated with test compounds for 45 hrs at 37° C. in a humidified atmosphere containing 5% CO2, supported in HMI media containing 20% bovine serum. […] Plates were then read using a fluorescent plate reader (Spectramax, Gemini XS, Bucher Biotec, Basel, Switzerland) using an excitation wavelength of 536 nm and an emission wavelength of 588 nm. Data points were averaged to generate sigmoidal dose-response curves and IC50 values were determined using Softmax Pro 5.2 software.

[5] = STIB 900 bloodstream forms, Alamar Blue, protocol of Example 114, read-out: Swiss TPH T b rhodesiense IC50
[6] = amastigotes in primary peritoneal mouse macrophages, 5 d, Giemsa staining, read-out: Inhibition of Organism Growth in Leishmania infantum MHOM/MA/BE/67, 5 d
[7] = L6, 96 h, read-out: SCYNEXIS IC50: I Org. Growth T. cruzi Tulahuen C2C4 Lac Z, 4 d [uM]
[8] = read-out: Swiss TPH T b rhodesiense IC50
[9] = read-out: Inhibition of Organism Growth in Leishmania infantum MHOM/MA/BE/67, 5 d [uM]
[10] = L6, in L-6 cells, 96 h, CPRG, read-out: SCYNEXIS IC50: I Org. Growth T. cruzi Tulahuen C2C4 Lac Z, 4 d

SMILES | IC50 [1, 5] [µM] | IC50 [2, 6] [µM] | IC50 [3, 7] [µM] | IC50 [1, 8] [µM] | IC50 [2, 9] [µM] | IC50 [3, 10] [µM] | IC50 [4] [µM]
O=C(Nc1ccc2c(c1)B(O)OC2)c1nnn(-c2cccc(F)c2)c1C(F)(F)F [Example 69, 1-(3-Fluorophenyl)-N-(1-hydroxy-1,3-dihydrobenzo[c][1,2]oxaborol-6-yl)-5-(trifluoromethyl)-1H-1,2,3-triazole-4-carboxamide] | 0.1 to 0.25 | < 3 |  |  |  |  | 
O=C(Nc1ccc2c(c1)B(O)OC2)c1nnn(-c2ccc(F)cc2)c1C(F)(F)F [Example 70, 1-(4-Fluorophenyl)-N-(1-hydroxy-1,3-dihydrobenzo[c][1,2]oxaborol-6-yl)-5-(trifluoromethyl)-1H-1,2,3-triazole-4-carboxamide] | 0.1 to 0.25 | < 3 |  |  |  |  | 
O=C(Nc1ccc2c(c1)B(O)OC2)c1nnn(-c2ccccc2)c1C(F)(F)F [Example 68, N-(1-hydroxy-1,3-dihydrobenzo[c][1,2]oxaborol-6-yl)-1-phenyl-5-(trifluoromethyl)-1H-1,2,3-triazole-4-carboxamide] |  |  | 0.11 to 1 | < 0.1 | < 3 |  | 
O=C(Nc1ccc2c(c1)B(O)OC2)c1cn(-c2ccccn2)nn1 [Example 61, N-(1-hydroxy-1,3-dihydrobenzo[c][1,2]oxaborol-6-yl)-1-(pyridin-2-yl)-1H-1,2,3-triazole-4-carboxamide] | 0.1 to 0.25 | < 3 |  |  |  | < 0.06 | 
Cc1c(C(=O)Nc2ccc3c(c2)B(O)OC3)nnn1-c1ccccn1 [Example 84, N-(1-hydroxy-1,3-dihydrobenzo[c][1,2]oxaborol-6-yl)-5-methyl-1-(pyridin-2-yl)-1H-1,2,3-triazole-4-carboxamide] |  | < 3 |  |  |  | < 0.06 | 
O=C(Nc1ccc2c(c1)B(O)OC2)c1nnn(-c2ccccc2F)c1C(F)(F)F [Example 67, 1-(2-Fluorophenyl)-N-(1-hydroxy-1,3-dihydrobenzo[c][1,2]oxaborol-6-yl)-5-(trifluoromethyl)-1H-1,2,3-triazole-4-carboxamide] | 0.1 to 0.25 | 20 to 100 |  |  |  |  | 
O=C(Nc1ccc2c(c1)B(O)OC2)c1cn(-c2ccc(F)cc2)nn1 [Example 60, 1-(4-Fluorophenyl)-N-(1-hydroxy-1,3-dihydrobenzo[c][1,2]oxaborol-6-yl)-1H-1,2,3-triazole-4-carboxamide] | < 0.1 | < 3 |  |  |  | 0.06 to 0.1 | 0.201 to 0.5
Cc1c(C(=O)Nc2ccc3c(c2)B(O)OC3)nnn1-c1cccnc1 [Example 93, N-(1-hydroxy-1,3-dihydrobenzo[c][1,2]oxaborol-6-yl)-5-methyl-1-(pyridin-3-yl)-1H-1,2,3-triazole-4-carboxamide] | 0.26 to 2 | 20 to 100 |  |  |  |  | 
O=C(Nc1ccc2c(c1)B(O)OC2)c1nnn(-c2cccnc2)c1C(F)(F)F [Example 71, N-(1-hydroxy-1,3-dihydrobenzo[c][1,2]oxaborol-6-yl)-1-(pyridin-3-yl)-5-(trifluoromethyl)-1H-1,2,3-triazole-4-carboxamide] | 0.1 to 0.25 | < 3 |  |  |  |  | 
Cc1c(C(=O)Nc2ccc3c(c2)B(O)OC3)nnn1-c1ccccc1 [Example 89, A-(1-hydroxy-1,3-dihydrobenzo[c][1,2]oxaborol-6-yl)-5-methyl-1-phenyl-1H-1,2,3-triazole-4-carboxamide] |  |  | < 0.06 | < 0.1 | 20 to 100 |  | 
